{"source": "paper PMC6397271", "about": "(Scientific Reports, 2019)", "key": {"[1]": {"test_system": "intracellular MRSA 12673 strain in HEK293 cells", "experiment": "Intracellular antimicrobial (infection) assay", "assay_type": "cell-based, Staphylococcus aureus", "conditions": "MRSA-infected HEK293 cells, 25 µM, 24 h", "experimental": "HEK293 (human embryonic kidney) cells were purchased form Cell Line Services (Germany). The cells were cultured in Dulbecco’s Modified Eagle’s (DMEM) medium with 4.5 g/l glucose (Sigma-Aldrich, Germany), supplemented with 10% fetal bovine serum (FBS, Sigma-Aldrich, Germany) and 1% PEN/STREP (Sigma-Aldrich, Germany). Cells were maintained in a 5% CO2 incubator at 37 °C. The original lines were checked for the presence of mycoplasma.\nHEK293 cells were seeded at a density of 1.5 × 10^5 cells/well in 24-well plates in an antibiotic-free medium (DMEM + 10% FBS) and were allowed to adhere overnight. Next, the medium was removed and overnight culture of S. aureus strain (12673) suspended in DMEM + 1% FBS (invasive medium) at a ratio of bacteria/cells 25:1 was added. To enable bacterial invasion, the cells were incubated with bacterial suspensions (37 °C, 5% CO2) for 2 h.\nAfter this period of time extracellular bacteria were eliminated by a 30 min incubation with 20 U/ml lysostaphin. […] The lysis of human cells was carried out with 0.2% Trition-X-100 (Sigma-Aldrich, Germany). The obtained cell lysates were serially diluted in PBS and plated on agar plates and CFU/ml was determined.\nThe results are presented as the percentage of S. aureus intracellular survival after treatment in comparison to that of non-treated cells (control). The assay was performed in triplicates."}, "[2]": {"test_system": "Enterococcus faecium 3934825", "experiment": "microbe, parasite or virus in culture", "assay_type": "cell-based", "conditions": "microbroth dilution, 96-well, resazurin, 37 °C, 24 h; mean ± SD, at least three independent experiments in triplicates", "description": "(§1) Three bacterial strains of MRSA (N315, 12673, 6347) and two of Enterococcus spp. (E. faecium, E. faecalis) were used. With respect to MRSA, N315 represented a reference Van-susceptible strain (GenBank GCA_00000645.1) isolated from a patient while 12673 (Van-intermediately susceptible) and 6347 (a h-VISA which appears at frequency of <10^−5 to 10^−6 is composed of two subpopulations of bacteria: one susceptible and one intermediately resistant)[38] were clinical strains obtained from patients of The Clinical University Centre of Gdańsk (UCK). […] The clinical strain isolates originated from the collection of the Department of Pharmaceutical Technology and Biochemistry, Faculty of Chemistry, Gdańsk University of Technology.\n(§2) The strains were grown in Mueller-Hinton broth (MH cation-adjusted, Becton Dickinson) or Brain Heart Infusion broth (BHI, Becton Dickinson), respectively. The cultivation was carried out in an aerobic atmosphere at 37 °C for 24 hours and, afterwards, the bacterial cultures were diluted in geometric progression with a proper broth. Next, 100 µl of each dilution was inoculated in an agar plate and incubated at 37 °C for 24 h. The next procedures included determination of Colony Forming Units (CFU)/ml and minimal inhibitory concentration (MIC) of the compounds in question. The latter procedure was carried out according to the microbroth dilution technique using 96-well plates. The MICs were evaluated by using the metabolic assay based on the resazurin dye. The assay was performed in triplicates."}, "[3]": {"test_system": "Enterococcus faecalis 3937158", "experiment": "microbe, parasite or virus in culture", "assay_type": "cell-based", "conditions": "microbroth dilution, 96-well, resazurin, 37 °C, 24 h; mean ± SD, at least three independent experiments in triplicates", "description": "as §1, §2"}, "[4]": {"experiment": "Brain concentration by LC/MS after iv administration", "assay_type": "in vivo, BALB/c male mice", "conditions": "iv, 2 h, LC/MS of brain homogenate", "experimental": "In vivo experiments were performed on BALB/c male mice weighing between 20 and 30 g (the mouse model is widely used for estimation of drug BBB penetration). The animals (obtained from TAZD-CBU) were kept in a 12-hour day and night cycle at room temperature (20–22 °C), humidity 55–56% and fed with a standard diet and water ad libitum for at least 1 week before the experiment. Body temperature and weight were recorded on a regular daily schedule. It is confirmed that all procedures were carried out according to the guidelines outlined by the European Community Council Directive 2010/63/EEC, and they were approved by the local Ethical Committee Resolution 26/2014 (Bydgoszcz, Poland).\nThe experiments in this section also involved the mouse model described above. […] Similarly to what was stated previously, the mice were sacrificed 2 hours after the administration of the compounds. Their brains were removed immediately from the cranium and weighed. Next, they were homogenized mechanically in the ice and frozen at −80 °C.\nEach homogenized mouse brain was centrifuged at 15 000 × g for 10 min. The supernatant was diluted with deionised water (Millipore), filtered (PTFE 0.22 μm filter) and analyzed by UHPLC-ESI/MS with the use of Shimadzu Nexera X2 UHPCL chromatograph and Shimadzu LCMS-2020 mass detector. […]"}, "[5]": {"test_system": "S.aureus MRSA 12673", "experiment": "microbe, parasite or virus in culture", "assay_type": "cell-based, Staphylococcus aureus", "conditions": "TP10 alone", "experimental": "(§3) To find out MICA(with B) and MICB(with A) a checkerboard assay was carried out in 96-well microtiter plates (each test was performed in triplicates). […] Each well in a 96-well plate was inoculated with 100 µL of bacterial inoculum of 1 × 10^5 CFU/mL. For this purpose only bacterial strains of MRSA (N315, 12673 and 6347) were used. Next, the plates were incubated at 37 °C for 24 h.\n(§4) FIC index (FICI) is the sum of FICA and FICB. The interpretation of the calculated FICIs is in accordance to the following principle: FICI ≤ 0.5 synergy; FICI > 0.5 and ≤4 indifference (no interaction); FICI > 4, antagonism."}, "[6]": {"test_system": "S.aureus MRSA N315", "experiment": "microbe, parasite or virus in culture", "assay_type": "cell-based, Staphylococcus aureus", "conditions": "TP10 alone", "experimental": "as §3, §4"}, "[7]": {"test_system": "S.aureus MRSA hetero-VISA 6347", "experiment": "microbe, parasite or virus in culture", "assay_type": "cell-based, Staphylococcus aureus", "conditions": "TP10 alone", "experimental": "as §3, §4"}, "[8]": {"test_system": "S. aureus MRSA 12673", "experiment": "microbe, parasite or virus in culture", "assay_type": "cell-based, Staphylococcus aureus", "conditions": "microbroth dilution, 96-well, resazurin, 37 °C, 24 h; mean ± SD, at least three independent experiments in triplicates", "description": "as §1, §2"}, "[9]": {"test_system": "S. aureus MRSA hetero-VISA 6347", "experiment": "microbe, parasite or virus in culture", "assay_type": "cell-based, Staphylococcus aureus", "conditions": "microbroth dilution, 96-well, resazurin, 37 °C, 24 h; mean ± SD, at least three independent experiments in triplicates", "description": "as §1, §2"}, "[10]": {"test_system": "S. aureus MRSA N315", "experiment": "microbe, parasite or virus in culture", "assay_type": "cell-based, Staphylococcus aureus", "conditions": "microbroth dilution, 96-well, resazurin, 37 °C, 24 h; mean ± SD, at least three independent experiments in triplicates", "description": "as §1, §2"}}, "data": [{"compound": "CC[C@H](C)[C@H](NC(=O)[C@H](CCCCN)NC(=O)[C@H](CCCCN)NC(=O)[C@H](C)NC(=O)[C@H](CC(C)C)NC(=O)[C@H](C)NC(=O)[C@H](C)NC(=O)[C@H](CC(C)C)NC(=O)[C@H](C)NC(=O)[C@H](CCCCN)NC(=O)[C@H](CC(C)C)NC(=O)[C@H](CC(N)=O)NC(=O)[C@@H](NC(=O)[C@H](CCCCN)NC(=O)CNC(=O)[C@H](CC(C)C)NC(=O)[C@H](CC(C)C)NC(=O)[C@H](Cc1ccc(O)cc1)NC(=O)CNC(=O)[C@H](C)N)[C@@H](C)CC)C(=O)N[C@@H](CC(C)C)C(N)=O", "note": "[TP10, transportan 10, reference compound]", "values": [{"measurement": "intracellular MRSA killed (bacterial killing rate)", "setting": "[1]", "result": 26, "unit": "%"}, {"measurement": "MIC", "setting": "[2]", "result": "12.5 ± 3.4", "unit": "µM"}, {"measurement": "MIC", "setting": "[3]", "result": "12.5 ± 2.2", "unit": "µM"}, {"measurement": "access to the brain / BBB penetration (in words)", "setting": "[4]", "result": "did not gain access to the brain"}, {"measurement": "MIC TP10 (B), MICB", "setting": "[5]", "result": 6.3, "unit": "µM"}, {"measurement": "MIC TP10 (B), MICB", "setting": "[6]", "result": 6.3, "unit": "µM"}, {"measurement": "MIC TP10 (B), MICB", "setting": "[7]", "result": 12.5, "unit": "µM"}, {"measurement": "MIC", "setting": "[8]", "result": "6.3 ± 1.6", "unit": "µM"}, {"measurement": "MIC", "setting": "[9]", "result": "12.5 ± 3.2", "unit": "µM"}, {"measurement": "MIC", "setting": "[10]", "result": "6.3 ± 1.3", "unit": "µM"}]}]}
